Source: patent US9289584B2, “Remotely controlled drug delivery systems” (THE UNIVERSITY OF BRITISH COLUMBIA, priority 2010, dated 2016)
≈ marks a conversion by molar mass, not a printed value. Like-named read-outs stand apart in the source and are kept apart here.

What was measured:
[1] = cited from earlier work
[2] = HPLC test of drug released after 8 months inside the device; assay type: physicochemical; conditions: HPLC after 8 months encapsulated inside the device
Experimental: The released drug from the device was tested with HPLC after 8 months that was encapsulated inside the device.

PC3 cells = assay: PC3 cell viability (MTS assay); assay type: cell-based; conditions: for cell viability equilibrated: PC3 cells, 2 days incubation
Experimental: (§1) A prototype device was actuated at the desired number of actuations in 1% BSA solution. The released DTX was extracted in 1 ml DCM, as described previously. This mixture was dried down under nitrogen flow at 40° C. and was then reconstituted in either HUVEC and PC3 cell media to the original volume of 4 ml. Alternatively, fresh solutions of free DTX were prepared in various concentrations (2-250 nM) in acetonitrile, dried down under nitrogen flow at 40° C., and reconstituted in cell media.
PC3 and HUVEC cells were seeded in 96 well plates in their respective media at a concentration of 1500 cells per well. The cells were allowed to equilibrate for 2 days at which time they became approximately 50% confluent and were ready for drug incubation. Cells were incubated for 2 days at 37° C. with 200 μl of either freshly prepared solutions of DTX at various concentrations or with the drug solution released from the device under various number of device actuations. Cell viability was determined using a CellTiter 96 AQueous Non-Radioactive Cell Proliferation Assay (MTS assay, Promega Corporation, Madison, Wis.) and quantified by reading the absorbance at 492 nm minus the absorbance at 610 nm using a spectrometric plate reader. In both experiments, the values presented are for the averages of six replicas for each condition.
The biological activity of the DTX released from a device was investigated. This was achieved by incubating cells with the released drug in cell culture media and measuring the drug induced inhibition of proliferation in comparison to the inhibition caused by freshly made drug solutions. The device used for this study had been fabricated and left in BSA solution for two months (with an open aperture) prior to the experiment. The amount of DTX release during this period was estimated to be about 4.5 μg based on measured DTX diffusion rate. It was then actuated under a 255 mT magnetic field for different numbers of actuation cycles. The amounts of released drug were then experimentally interpolated from “number of actuations” to “drug concentrations”, using FIG. 4-a. […]

[3] = Saturation solubility of DTX in the solution-filled reservoir; assay type: physicochemical; conditions: 40 mg/ml BSA solution in PBS inside the device reservoir, aqueous buffer, thermodynamic from solid; solid DTX dissolved by BSA solution in PBS inside the reservoir, 37° C.
Experimental: Step 8: The device was exposed to a 40 mg/ml bovine serum albumin (BSA, Sigma-Aldrich Canada Ltd., Ontario, Canada) solution in phosphate buffered saline (PBS) and incubated at 37° C. to increase the wet ability of the magnetic PDMS membrane and thus filling of the drug reservoir with water. The hydrophilic aperture walls results in surface-tension driven flow through the aperture and gradual filling of the reservoir with solution.

HUVECs = assay: HUVEC viability (MTS assay); assay type: cell-based; conditions: 2 days incubation
Experimental: as §1
PC3 and HUVEC cells were seeded in 96 well plates in their respective media at a concentration of 1500 cells per well. The cells were allowed to equilibrate for 2 days at which time they became approximately 50% confluent and were ready for drug incubation. […] Cell viability was determined using a CellTiter 96 AQueous Non-Radioactive Cell Proliferation Assay (MTS assay, Promega Corporation, Madison, Wis.) and quantified by reading the absorbance at 492 nm minus the absorbance at 610 nm using a spectrometric plate reader. […]
The biological activity of the DTX released from a device was investigated. […] The amount of DTX release during this period was estimated to be about 4.5 μg based on measured DTX diffusion rate. […]

[4] = drug released from the device (255 mT, device kept two months in BSA solution)

CC(C)(C)NC[C@H](O)COc1nsnc1N1CCOCC1 [timolol]
solubility [1]: 2500 µg/mL (≈ 7.9 mM)

CC(C)OC(=O)CCC/C=C\C[C@@H]1[C@@H](CC[C@@H](O)CCc2ccccc2)[C@H](O)C[C@@H]1O [latanoprost]
solubility [1]: 50000 µg/mL (≈ 116 mM)

CC(=O)O[C@@]12CO[C@@H]1C[C@H](O)[C@@]1(C)C(=O)[C@H](O)C3=C(C)[C@@H](OC(=O)[C@H](O)[C@@H](NC(=O)OC(C)(C)C)c4ccccc4)C[C@@](O)([C@@H](OC(=O)c4ccccc4)[C@H]21)C3(C)C [DTX, docetaxel]
drug remained intact [2]: over 95% | cell viability equilibrated (PC3 cells; [4]): about 34% | cell viability equilibrated (PC3 cells; fresh free drug): about 34% | stability of DTX inside the PDMS MEMS device (PC3 cells; after two months, judged by antiproliferative effect): does not degrade | solubility [3]: ~5 µg/mL (≈ 0.00619 mM) | cell viability equilibrated (HUVECs; [4]): about 24% | cell viability equilibrated (HUVECs; fresh free drug): about 24%
